Experiments:
[1] = system: CD19×CD3 bispecific antibody construct; assay: Preservative compatibility, percent HMW species by SEC-HPLC at pH 4; assay type: physicochemical; conditions: CD19×CD3 bispecific antibody construct 0.8 mg/mL, 10 mM glutamate pH 4.0, 9% sucrose, 0.01% polysorbate 80; preservative conc. of Table 4; 25° C., 14 days
Protocol: In order to investigate the compatibility of known preservatives with a representative bispecific antibody construct according to the present invention, CD19×CD3 bispecific antibody construct was formulated in the presence of respective known preservatives with parameters as set out in Table 4.
The chosen preservative concentrations reflected standard concentrations employed in the art. The respective formulations were stored at 25° C. for 14 days and examined on day 0, 1, 3, 7 and 14 by size exclusion chromatography (SEC-HPLC).

[2] = Frozen stability at −20° C. over 4 weeks, HMW species (FIG. 9, 10); assay type: physicochemical; conditions: DLL3×CD3, pH 4
[3] = system: CDR-H3 region (YISYW) of anti-CD3 domain; assay: Hydrogen-deuterium exchange (HDX) mass spectrometry, effects of citrate and benzyl alcohol; assay type: physicochemical; conditions: addition to Tris-phosphate pH 6.0, 50 mM citrate, 0.9% benzyl alcohol
Excerpt: Hydrogen-deuterium exchange (HDX) is a chemical reaction in which a covalently bonded hydrogen atom is replaced by a deuterium atom, or vice versa. It can be applied most easily to exchangeable protons and deuterons, where such a transformation occurs in the presence of a suitable deuterium source, without any catalyst. The method gives information about the solvent accessibility of various parts of the molecule, and thus the tertiary structure of the protein.
Model anti-FAPα domain, isolated anti-CD3 domain (I2C, as typically used throughout all example bispecific antibody constructs), CD33×CD3 bispecific antibody construct and EGFRvIII×CD3 bispecific antibody construct were examined. For FAPα, anti-CD3 domain, and CD33×CD3 bispecific antibody construct, the experimental procedure was same. Firstly, the protein samples were dialyzed into Tris-phosphate buffer (35 mM Tris, 17.5 mM phosphate, pH 6.0) and (35 mM Tris, 17.5 mM phosphate, 50 mM citrate, pH 6.0), respectively. The protein concentration was adjusted to 0.3 mg/mL after dialysis. […] Thirdly, the HDX reaction was quenched after 10s, 1 min, 10 min, 1 hr, 4 hr, and 12 hr, and then the quenched protein samples were analyzed by mass spectrometry. […] Thirdly, the HDX reaction was quenched after 10s, 10 min, 2 hr, 8 hr, 16 hr, 24 hr, and then the quenched protein samples were analyzed by mass spectrometry. […]

[4] = system: Staphylococcus aureus (ATCC 6538); assay: Microbial challenge study in IV bags; assay type: cell-based; conditions: 20-25° C.
Protocol: (§1) This example was a microbial challenge study in support of CD19×CD3 bispecific antibody construct drug product (DP) administered via an intravenous (IV) bag. The study was performed to evaluate the ability of different concentrations (0.5%-0.74%) of benzyl alcohol (BeOH) to reduce or eliminate microbial growth in IV bags holding blinatumomab infusion solution containing benzyl alcohol, CD19×CD3 bispecific antibody construct DP, and intravenous solution stabilizer (IVSS) kept at 20-25° C. for up to 14 days.
(§2) The study was carried out to evaluate the growth of six different microorganisms in IV bags filled with 109 mL of CD19×CD3 bispecific antibody construct infusion solution containing benzyl alcohol (BeOH, at a final concentration of 0.0%, 0.5%, 0.6% or 0.74%), CD19×CD3 bispecific antibody construct DP, and IVSS. The prepared IV bags were held at 20-25° C. for up to 14 days.
(§3) The bacteria and yeast selected for the study are representative of known human pathogens commonly isolated from nosocomial infections. These microorganisms include Candida albicans (ATCC 10231), Enterobacter cloacae (ATCC 13047), Escherichia coli (ATCC 8739), Micrococcus luteus (ATCC 4698), Pseudomonas aeruginosa (ATCC 9027), and Staphylococcus aureus (ATCC 6538).
(§4) Test Articles: The test articles assessed in the study were blinatumomab infusion solution filled in IV bags containing 1.91 μg/mL conc. blinatumomab in a total volume of 109 mL/bag. The solution was made up by the addition of 2.2 mL IVSS, 16.8 mL of pooled reconstituted blinatumomab DP (210 μg), and a combined total volume of 90 mL of saline solution and saline solution with 0.9% benzyl alcohol (basaline). The four different levels of BeOH (0.0%, 0.5%, 0.6% and 0.74%) assessed in the study were achieved by adding different amounts of saline and basaline. For example, the bag with 0.0% BeOH (positive control) was prepared by adding 90 mL of saline, while the bag with 0.6% BeOH was prepared by adding 18 mL saline and 72 mL 0.9% bsaline, to the 2.2 mL IVSS and 16.8 mL blinatumomab DP. Refer to Appendix A for more details. Note that the illustration for 0.0% BeOH positive control in FIG. 1 (Schematic of IV Bag Preparation) of Appendix A of this report and in the same illustration in FIG. 4 of Appendix D inadvertently stated the final BeOH concentration to be 0.5%, instead of 0.0%. This is a typographic error and has no impact on the study outcome.
(§5) A total of 24 CD19×CD3 bispecific antibody construct infusion solution filled IV bags were assessed to evaluate the effect of four levels of benzyl alcohol on the aforementioned six different microorganisms (6×4=24). An approximate 1 mL of inoculum containing <1×10^4 CFU microbes was inoculated through the injection port into each bag that yielded an initial microbial load at ˜1×10^2 CFU/mL. After inoculation, the sampling port on the bag was cleaned with sterile IPA and the bag was mixed briefly and then incubated at 20-25° C.
(§6) Sampling and titration procedures: At each time point of 0-hour, 4-day, 8-day, 10-day, 12-day and 14 day, a 3 mL aliquot was collected from each assessed bag and titrated.
(§7) Sample titration was performed by membrane filtration in duplicate of 1 mL aliquots for each timed sample. Additional dilutions were performed to obtain countable results (<300 CFU/plate).

[5] = system: Candida albicans (ATCC 10231); assay: Microbial challenge study in IV bags; assay type: cell-based; conditions: all three levels of BeOH (0.5%, 0.6%, 0.74%) in blinatumomab infusion solution; 20-25° C.
Protocol: as §1, §2, §3, §4, §5, §6, §7

[6] = system: Micrococcus luteus (ATCC 4698); assay: Microbial challenge study in IV bags; assay type: cell-based; conditions: 20-25° C.
Protocol: as §1, §2, §3, §4, §5, §6, §7

[7] = system: Pseudomonas aeruginosa (ATCC 9027); assay: Microbial challenge study in IV bags; assay type: cell-based; conditions: 20-25° C.
Protocol: as §1, §2, §3, §4, §5, §6, §7

[8] = system: Enterobacter cloacae (ATCC 13047); assay: Microbial challenge study in IV bags; assay type: cell-based; conditions: 20-25° C.
Protocol: as §1, §2, §3, §4, §5, §6, §7

[9] = system: Escherichia coli (ATCC 8739); assay: Microbial challenge study in IV bags; assay type: cell-based; conditions: 20-25° C.
Protocol: as §1, §2, §3, §4, §5, §6, §7

[10] = system: CD19×CD3 bispecific antibody constructs; assay: Denaturation assay (guanidinium chloride) with fluorescence detection; assay type: physicochemical; conditions: 2.5 hours at 25° C., pH 7; excitation 280 nm, emission 300 to 400 nm
Protocol: FIG. 4: Denaturation diagram of CD19×CD3 bispecific antibody constructs at a concentration of 1 mg/ml in presence or absence of preservative benzyl alcohol as determined by fluorescence spectrometry […].
Improved stability of a representative bispecific antibody construct of the present invention conferred by a preservative such as benzyl alcohol was further examined by a denaturation assay using fluorescence as detection means. Experimental conditions comprised guanidinium chloride as denaturant which concentration was plotted on the x-axis (see FIG. 4). Incubation time was 2.5 hours at 25° C. at near-physiologic pH 7. Fluorescence excitation was set to 280 nm and the emission scan was run from 300 to 400 nm. The percentile denaturated fraction was calculated from the fluoresces assay as standard in the art. The result can be seen in FIG. 4. The grey curve represents the formulation comprising benzyl alcohol, the black curve the formulation without preservative. […] This means that it takes more denaturant to unfold this region, i.e. the CD3 domain, which translates into improved stability conferred by the preservative.

[11] = 0.5% or 0.6% BeOH in blinatumomab infusion solution
[12] = 0.74% BeOH in blinatumomab infusion solution
[13] = 0.5%, 0.6% and 0.74% BeOH in blinatumomab infusion solution, inoculum 100 CFU/mL
[14] = all three assessed concentrations (0.5%, 0.6%, 0.74%), up to 14 days

SMILES: COC(=O)c1ccc(O)cc1 [methylparabene, methylparaben]
- percent high molecular weight (HMW) species over time [1]: decrease in the percent high molecular weight (HMW) species over time

SMILES: OCc1ccccc1 [benzyl alcohol]
- benzyl alcohol concentration at which stabilizing effect on frozen stability is best [2]: above 0.1%
- conformational dynamics of the region of residues 366-370 (YISYW) versus formulation of Tris-phosphate [3]: increases the conformational dynamics of this region
- day on which challenged S. aureus inoculum became unrecoverable [4, 11]: 8 days
- day on which challenged S. aureus inoculum became unrecoverable [4, 12]: 4 days
- day on which challenged C. albicans was unrecoverable [5]: 8 days
- day on which challenged M. luteus was unrecoverable [6, 11]: 14 days
- day on which challenged M. luteus was unrecoverable [6, 12]: 8 days
- day from which no P. aeruginosa was recoverable [7, 13]: 4 days
- growth of P. aeruginosa [7, 14]: completely inhibited
- day from which no E. cloacae was recoverable [8, 13]: 10 days
- growth of E. cloacae [8, 14]: completely inhibited
- day from which no E. coli was recoverable [9, 13]: 10 days
- growth of E. coli [9, 14]: completely inhibited
- denaturation curve (denaturated fraction vs guanidinium chloride) with benzyl alcohol versus without preservative [10]: shift to the right in the bottom portion of the curve

SMILES: Oc1ccccc1 [phenol]
- percent high molecular weight (HMW) species over time [1]: HMW values overall remain constant

SMILES: O=C(O)CC(O)(CC(=O)O)C(=O)O [citrate]
- conformational dynamics of the region of residues 366-370 (YISYW) versus formulation of Tris-phosphate [3]: reduces the conformational dynamics of this region

SMILES: C[CH2][Hg][S]c1ccccc1C(=O)[O-].[Na+] [Thimerosal, thimerosal]
- percent high molecular weight (HMW) species over time [1]: slight increase in HWM over time

— patent US11918650B2, “Pharmaceutical composition comprising bispecific antibody constructs for improved storage and administration” (AMGEN INC., priority 2017, dated 2024)
